Where two headings read alike, the source gives them in different places.
Target: human cytidine deaminase (CDA) (Homo sapiens, UniProt P32320, Y33G)
Experiment: biochemical
Format: biochemical

human cytidine deaminase (CDA), sequence (P32320 whole entry Y33G): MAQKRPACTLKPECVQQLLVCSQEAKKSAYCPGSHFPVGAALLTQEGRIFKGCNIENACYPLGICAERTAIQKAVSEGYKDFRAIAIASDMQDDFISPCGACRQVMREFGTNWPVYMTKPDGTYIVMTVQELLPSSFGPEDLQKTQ

| Ki | Ki (read-out: Y33G) | Molecule |
| --- | --- | --- |
| 0.2 µM | – | O=c1ncc(F)cn1[C@@H]1O[C@H](CO)[C@@H](O)[C@H]1O [5-FZEB, 5-Fluorozebularine] |
| – | 3.4 µM | 6-[3,5(cytidyl)acryloylamino] hexanoic acid [CV6] |

Reference: publication PMC3020594 (International journal of biological macromolecules, 2010)
